Source: US11590134B2, “Aminopyrimidine amide autophagy inhibitors and methods of use thereof” (Deciphera Pharmaceuticals, LLC, priority 2019, dated 2023)

Columns and labels:
[1] = system: ULK kinase substrate ATG13 (phospho-Serine 318 ATG13) in A549 cells; assay: pATG13 ELISA in mutant KRas A549 cells in combination with trametinib; type: cell-based; conditions: A549 (KRAS mutant) human lung cancer cells, with 250 nM trametinib, overnight
Experimental: (§1) A549 (KRAS mutant) human lung cancer cells (6,000 cells/well) were added to a 384-well tissue-culture treated plate in 50 μL of pre-warmed DMEM medium supplemented with 10% characterized fetal bovine serum (Invitrogen, Carlsbad, Calif.), 100 units/mL penicillin G, and 100 μg/mL streptomycin and allowed to grow overnight at 37° C., 5% CO2, and 95% humidity. The following day, 10 μL of media containing trametinib or DMSO as a control was added to wells. The final concentration of trametinib in wells was 250 nM. A dose response of a test compound (0.6 μL per well) was added. DMSO (0.6 μL) was added to control wells. The plate was briefly shaken to mix wells and then incubated at 37° C. overnight. The next day, the media was aspirated and cells were washed with Dulbecco's Phosphate Buffered Saline (Gibco). Cells were lysed using MPER lysis buffer (Pierce, Rockford, Ill.) containing Halt Phosphatase and Protease Inhibitors (Pierce, Rockford, Ill.) and Phosphatase inhibitor cocktail 2 (Sigma, St. Louis, Mo.) at 4° C. for 10 minutes with shaking.
(§2) Cellular levels of phospho-Serine 318 ATG13 (pATG13) were measured via an ELISA method. Total ATG13 Antibody (Cell Signaling Cat #13273) was used to coat the wells. The plate was incubated at 4° C. overnight and washed with ELISA wash buffer (Biolegend Cat #421601). The wells were then blocked with assay diluent (Biolegend Cat #421203) for 1 hour at room temperature. Plate wells were washed with ELISA wash buffer. Cell lysate was added to wells and incubated at room temperature for 2 hours. Plate wells were washed with ELISA wash buffer. Biotinylated pS318-ATG13 antibody (Rockland Immunochemicals Cat #600-401-C49) was diluted in assay diluent and added to each well and incubated at room temperature for 1 hour. Plate wells were washed with ELISA wash buffer. Streptavidin linked to horseradish peroxidase (Thermo Fisher Cat #21140) was diluted in assay diluent and added to each well and incubated at room temperature for 1 hour. Plate wells were washed with ELISA wash buffer. High sensitivity TMB substrate (Biolegend Cat #421101) was added to each well and incubated at room temperature for 20 minutes. The reaction was stopped with 2N Sulfuric Acid. The plate was analyzed at on a plate reader measuring absorbance at 450 nm and 540 nm (background). Signal was calculated by first subtracting the background absorbance at 540 nm from the absorbance at 450 nm for each well. Next, the background corrected absorbance at 450 nm from blank wells was subtracted from test wells. Data was compared to control wells to determine % ATG13 phosphorylation. GraphPad Prism was used to calculate IC50 values.

[2] = system: ULK kinase substrate ATG13 (phospho-Serine 318 ATG13) in MiaPaCa-2 cells; assay: pATG13 ELISA in mutant KRas MiaPaCa-2 cells in combination with trametinib; type: cell-based; conditions: MiaPaCa-2 human pancreatic cancer cells, with 250 nM trametinib, overnight
Experimental: as §1, with “MiaPaCa-2” for “A549 (KRAS mutant)”, “pancreatic” for “lung”, “(10000” for “(6,000”, “G,” for “G, and”, “streptomycin, and 2.5% Horse Serum” for “streptomycin”
as §2

[3] = molecular target: T1, ULK2 kinase (Homo sapiens, UniProt Q8IYT8); assay: Biochemical assay for ULK2 (coupled pyruvate kinase/lactate dehydrogenase assay); conditions: 9.7 nM ULK2 (residues 1-306), myelin basic protein substrate, 1 mM ATP; read-out: ULK2.2
T1 construct: purchased Eurofins 14-772
T1 sequence (Q8IYT8 with tags, fused parts or gaps): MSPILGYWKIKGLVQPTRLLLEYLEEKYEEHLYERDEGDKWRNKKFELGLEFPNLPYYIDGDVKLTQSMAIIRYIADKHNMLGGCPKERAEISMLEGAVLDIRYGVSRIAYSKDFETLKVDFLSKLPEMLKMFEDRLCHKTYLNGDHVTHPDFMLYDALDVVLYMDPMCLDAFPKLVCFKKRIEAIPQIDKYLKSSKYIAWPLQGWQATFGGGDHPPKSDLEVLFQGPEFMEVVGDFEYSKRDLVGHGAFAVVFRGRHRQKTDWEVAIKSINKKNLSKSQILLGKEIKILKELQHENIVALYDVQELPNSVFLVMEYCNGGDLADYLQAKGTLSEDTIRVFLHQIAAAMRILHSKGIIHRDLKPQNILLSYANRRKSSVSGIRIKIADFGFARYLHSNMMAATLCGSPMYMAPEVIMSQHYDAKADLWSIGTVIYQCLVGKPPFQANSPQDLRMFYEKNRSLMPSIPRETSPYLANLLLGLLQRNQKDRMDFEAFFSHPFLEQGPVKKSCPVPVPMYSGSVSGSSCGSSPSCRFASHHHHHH
Experimental: Activity of ULK2 kinase was determined spectroscopically using a coupled pyruvate kinase/lactate dehydrogenase assay that continuously monitors the ATP hydrolysis-dependent oxidation of NADH (e.g., Schindler et al. Science (2000) 289: 1938-1942). Assays were conducted in 384-well plates (100 uL final volume) using 9.7 nM ULK2 (Eurofins CAT #14-772), 0.25 mg/mL myelin basic protein, 1.5 units pyruvate kinase, 2.1 units lactate dehydrogenase, 1 mM phosphoenol pyruvate, 0.28 mM NADH and 1 mM ATP in assay buffer (100 mM Tris, pH 7.5, 15 mM MgCl2, 0.5 mM DTT, 0.1% octyl-glucoside, 0.002% (w/v) BSA, and 0.002% Triton X-100). Inhibition of ULK2 was measured by adding serial diluted test compound (final assay concentration of 1% DMSO). A decrease in absorption at 340 nm was monitored continuously for 6 hours at 30° C. on a multi-mode microplate reader (BioTek). The reaction rate was calculated using the 2-3 h time frame. The reaction rate at each concentration of compound was converted to percent inhibition using controls (i.e. reaction with no test compound and reaction with a known inhibitor) and IC50 values were calculated by fitting a four-parameter sigmoidal curve to the data using Prism (GraphPad software).

SMILES | IC50 [1] | IC50 [2] | IC50 [3]
Cc1cc(N2CCN(C)CC2)ccc1Nc1ncc(C(F)(F)F)c(NCCCNC(=O)C(C)(C)C)n1 [Example 12] | 300 to 600 nM | 100 to 300 nM | 100 to 500 nM
CC(C)c1cc(N2CCN(C)CC2)ccc1Nc1ncc(Br)c(NCCCNC(=O)C2CCC2)n1 [Example 8] | 100 to 300 nM | 100 to 300 nM | 100 to 500 nM

Other lines, results leading:

IC50 [1] | IC50 [2] | IC50 [3] | SMILES
100 to 300 nM | 10 to 100 nM | 25 to 100 nM | CC(C)c1cc(N2CCN(C)CC2)ccc1Nc1ncc(C(F)(F)F)c(NCCCNC(=O)C2CCC2)n1 [Example 3]
10 to 100 nM | 10 to 100 nM | 1 to 25 nM | CN1CCN(c2ccc(Nc3ncc(C(F)(F)F)c(NCCCNC(=O)C4CCC4)n3)c(C3CC3)c2)CC1 [Example 14]
100 to 300 nM | 100 to 300 nM | 25 to 100 nM | COc1cc(N2CCN(C)CC2)ccc1Nc1ncc(C(F)(F)F)c(NCCCNC(=O)C2CCC2)n1 [Example 4]
